Source: US7713985B2, “Adenosine Aa2 receptor antagonists” (Schering Corporation, priority 2006, dated 2010)

What follows are compounds tested against T1, Human A2a Adenosine Receptor (Homo sapiens, UniProt P29274) (assay: Human adenosine A2a receptor competition binding assay). Settings: [3H]-SCH 58261 displacement, human A2a membranes.
T1 construct: purchased Receptor Biology, Inc., Beltsville, Md; RB-HA2a
Protocol: Human Adenosine A2a and A1 Receptor Competition Binding Assay Protocol
A2a: Human A2a Adenosine Receptor membranes, Catalog #RB-HA2a, Receptor Biology, Inc., Beltsville, Md. Dilute to 17 μg/100 μl in membrane dilution buffer (see below).
Membrane dilution buffer: Dulbecco's Phosphate Buffered Saline (Gibco/BRL)+10 mM MgCl2.
Compound Dilution Buffer: Dulbecco's Phosphate Buffered Saline (Gibco/BRL)+10 mM MgCl2 supplemented with 1.6 mg/ml methyl cellulose and 16% DMSO. Prepared fresh daily.
A2a: [3H]-SCH 58261, custom synthesis, AmershamPharmacia Biotech, Piscataway, N.J. Stock is prepared at 1 nM in membrane dilution buffer. Final assay concentration is 0.5 nM.
A2a: To determine non-specific binding, add 100 nM CGS 15923 (RBI, Natick, Mass.). Working stock is prepared at 400 nM in compound dilution buffer.
Prepare 1 mM stock solutions of compounds in 100% DMSO. Dilute in compound dilution buffer. Test at 10 concentrations ranging from 3 μM to 30 pM. Prepare working solutions at 4× final concentration in compound dilution buffer.
Perform assays in deep well 96 well plates. Total assay volume is 200 μl. Add 50 μl compound dilution buffer (total ligand binding) or 50 μl CGS 15923 working solution (A2a non-specific binding) or 50 μl NECA working solution (A1 non-specific binding) or 50 μl of drug working solution. Add 50 μl ligand stock ([3H]-SCH 58261 for A2a, [3H]-DPCPX for A1). Add 100 μl of diluted membranes containing the appropriate receptor. Mix. Incubate at room temperature for 90 minutes. Harvest using a Brandel cell harvester onto Packard GF/B filter plates. Add 45 μl Microscint 20 (Packard), and count using the Packard TopCount Microscintillation Counter. Determine IC50 values by fitting the displacement curves using an iterative curve fitting program (Excel). Determine Ki values using the Cheng-Prusoff equation.

T1 sequence (P29274 whole entry): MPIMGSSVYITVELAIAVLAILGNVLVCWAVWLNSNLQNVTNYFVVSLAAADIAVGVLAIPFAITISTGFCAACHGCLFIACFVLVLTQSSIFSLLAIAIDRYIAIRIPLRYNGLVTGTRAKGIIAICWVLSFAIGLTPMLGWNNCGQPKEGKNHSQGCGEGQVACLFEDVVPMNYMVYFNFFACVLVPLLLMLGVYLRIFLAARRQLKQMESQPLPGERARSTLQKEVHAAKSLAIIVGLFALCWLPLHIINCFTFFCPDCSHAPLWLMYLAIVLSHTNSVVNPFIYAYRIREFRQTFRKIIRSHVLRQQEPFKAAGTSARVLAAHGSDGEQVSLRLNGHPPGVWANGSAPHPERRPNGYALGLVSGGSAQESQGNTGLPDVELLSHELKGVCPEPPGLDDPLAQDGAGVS

| Ki | SMILES |
| --- | --- |
| 4.7 nM | Nc1nc2ccccc2c2nn(Cc3cccc(Cl)c3)c(=O)n12 [Example 13] |
| 12.2 nM | Nc1nc2ccccc2c2nn(Cc3cccc(F)c3)c(=O)n12 [Example 12] |
| 12 nM | Nc1nc2ccccc2c2nn(Cc3c(Cl)cccc3Cl)c(=O)n12 [Example 8] |
